Results on six compounds are retold here after paper PMC3258025 (Molecular Cancer Therapeutics, 2010).

SMILES strings stand for the structures.

Series [1] concerns lung cancer cell lines (A549, H460, H838, and H1703). Description: MTT cytotoxicity, summary over the four lung cancer cell lines. The settings on record: cimetidine 3 mmol/L, 4-hour exposure. Type of series: cell-based, human.
In series [2] the test system is HEK293 cells. Description: MTT cytotoxicity of the OCT inhibitors themselves. Type of series: cell-based, human. The settings on record: same experimental conditions as picoplatin MTT assay; data not shown. For orientation: Formazan colour is commonly taken as a measure of viable cells.
In series [3] the target is T1, OCT3 (Homo sapiens, UniProt O75751).
T1 sequence (O75751 1-556): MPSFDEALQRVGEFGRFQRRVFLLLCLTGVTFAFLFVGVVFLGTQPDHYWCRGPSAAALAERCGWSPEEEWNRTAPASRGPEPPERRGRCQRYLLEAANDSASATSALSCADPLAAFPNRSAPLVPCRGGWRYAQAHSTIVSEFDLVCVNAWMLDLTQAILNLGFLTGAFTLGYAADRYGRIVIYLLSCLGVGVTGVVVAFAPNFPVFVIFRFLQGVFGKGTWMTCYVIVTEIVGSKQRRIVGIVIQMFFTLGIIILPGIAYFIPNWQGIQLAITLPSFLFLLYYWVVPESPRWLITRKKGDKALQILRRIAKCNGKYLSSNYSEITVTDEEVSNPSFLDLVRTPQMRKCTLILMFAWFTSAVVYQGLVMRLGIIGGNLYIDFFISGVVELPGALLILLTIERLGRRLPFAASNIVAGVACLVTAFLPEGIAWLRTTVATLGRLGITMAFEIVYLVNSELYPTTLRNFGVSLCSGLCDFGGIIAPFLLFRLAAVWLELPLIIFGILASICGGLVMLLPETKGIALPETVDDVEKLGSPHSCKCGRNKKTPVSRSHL
The conditions noted are these: corticosterone 10 μmol/L, P < 0.001.

For series [4], the system named is HEK-hOCT1 cells. Description: MTT cytotoxicity assay in OCT1-transfected HEK293 cells. Type of series: cell-based, human. The settings on record: disopyramide 150 μmol/L.
In series [5] the target is T2, OCT1 (Homo sapiens, UniProt O15245).
T2 sequence (O15245 1-554): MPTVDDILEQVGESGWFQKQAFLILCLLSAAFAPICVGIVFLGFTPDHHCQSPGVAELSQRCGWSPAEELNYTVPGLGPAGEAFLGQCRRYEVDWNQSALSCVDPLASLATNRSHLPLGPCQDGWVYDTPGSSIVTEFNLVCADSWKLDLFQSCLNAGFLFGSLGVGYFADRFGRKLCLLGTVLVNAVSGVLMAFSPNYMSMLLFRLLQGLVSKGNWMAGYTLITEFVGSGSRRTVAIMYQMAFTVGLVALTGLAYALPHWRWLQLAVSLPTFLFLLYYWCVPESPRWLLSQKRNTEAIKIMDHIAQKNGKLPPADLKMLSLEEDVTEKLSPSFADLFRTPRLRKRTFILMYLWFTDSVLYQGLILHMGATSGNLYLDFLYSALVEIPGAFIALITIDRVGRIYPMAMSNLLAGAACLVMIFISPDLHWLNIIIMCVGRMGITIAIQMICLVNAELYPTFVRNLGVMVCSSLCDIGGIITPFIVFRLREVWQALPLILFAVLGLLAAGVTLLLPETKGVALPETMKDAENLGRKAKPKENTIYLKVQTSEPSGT
Nature of the series: Platinum-DNA adduct formation in HEK-hOCT1 cells. It is filed as cell-based. The conditions noted are these: disopyramide 150 μmol/L, P < 0.001.

For series [6], the target named is T2, OCT1. The conditions noted are these: 10 μmol/L, 30 minutes; picoplatin in PB-Cl, monoaqua and diaqua complexes in PB-SO4.

As for `N.N.O=C([O-])C1(C(=O)[O-])CCC1.[Pt+2]` [Carboplatin], in series [1], the “Change in IC50 values in the presence of cimetidine” value is on record as “no significant change in the IC50 values”.

As to `N.N.[Cl][Pt][Cl]` [Cisplatin], the “Change in IC50 values in the presence of cimetidine” value in series [1] was “no significant change in the IC50 values”.

For the compound `CN/C(=N/CCSCc1nc[nH]c1C)NC#N` [cimetidine], in series [2], the “Concentration up to which the inhibitor itself did not exhibit any cytotoxicity” value was over 5000 µM.

For `C[C@]12C[C@H](O)[C@H]3[C@@H](CCC4=CC(=O)CC[C@@]43C)[C@@H]1CC[C@@H]2C(=O)CO` [corticosterone], the “Effect of OCT3 inhibitor on picoplatin-DNA adduct level in HEK-hOCT3 cells” value in series [3] was “completely inhibited”.

As for `CC(C)N(CCC(C(N)=O)(c1ccccc1)c1ccccn1)C(C)C` (centres unmarked) [disopyramide], the “Increase of picoplatin IC50 by coincubation of OCT1 inhibitor” value in series [4] stood at 5.9 fold. Also, the “Effect of OCT1 inhibitor on platinum-DNA adduct formation in HEK-hOCT1 cells” value in series [5] is “inhibitable”. Further, the “Concentration up to which the inhibitor itself did not exhibit any cytotoxicity” value in series [2] was over 400 µM.

With `Cc1cccc[n+]1[Pt-2]([NH3+])([OH2+])[Cl]` (centres unmarked) [monoaqua complex of picoplatin, [Pt(NH3)(2-Pic)(H2O)(Cl)]+], the “Preference of platinum uptake in OCT1-expressing cells over the corresponding EV cells” value in series [6] is “equal additional preference in OCT1-expressing cells”.
